Experimental data as given in US9738634B2, “Heterocyclic amide compound and herbicide” (SYNGENTA PARTICIPATIONS AG, priority 2013, dated 2017).

Experiments:
Assay type in all cases: in vivo
Conditions in all cases: treatment dosage 320 g/ha
wheat [1] = assay: Test Example 4: foliar treatment, effect on crop; e: wheat
Procedure, shortened: (§1)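 Seeds are spot-sown into sterilized diluvial soil and covered with about 1.5 cm of soil. After 14 days' greenhouse growth at 25 to 30° C, plants are sprayed on stems and leaves with diluted emulsion at the stated g/ha rate, then scored at 3 weeks.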

Indian mallow [2] = assay: Test Example 3: weedkilling efficacy through soil treatment; K: Indian mallow
Procedure, shortened: (§2)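 Crop and weed responses were judged three weeks after a uniform surface spray of the water-diluted emulsion at the given g/ha rate. Seeds sat beneath about 1.5 cm of sterilized diluvial soil, and boxes stood in a greenhouse at 25 to 30° C.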

redroot pigweed [3] = assay: Test Example 3: weedkilling efficacy through soil treatment; L: redroot pigweed
Procedure, shortened: as §2

soybean [4] = assay: Test Example 4: foliar treatment, effect on crop; d: soybean
Procedure, shortened: as §1

wild oat [5] = assay: Test Example 3: weedkilling efficacy through soil treatment; G: wild oat
Procedure, shortened: as §2

common wind-grass [6] = assay: Test Example 3: weedkilling efficacy through soil treatment; J: common wind-grass
Procedure, shortened: as §2

common wind-grass [7] = assay: Test Example 4: weedkilling efficacy by foliar treatment; J: common wind-grass
Procedure, shortened: as §1

birds-eye speedwell [8] = assay: Test Example 4: weedkilling efficacy by foliar treatment; p: birds-eye speedwell
Procedure, shortened: as §1

redroot pigweed [9] = assay: Test Example 4: weedkilling efficacy by foliar treatment; L: redroot pigweed
Procedure, shortened: as §1

wild oat [10] = assay: Test Example 4: weedkilling efficacy by foliar treatment; G: wild oat
Procedure, shortened: as §1

beet [11] = assay: Test Example 4: foliar treatment, effect on crop; f: beet
Procedure, shortened: as §1

corn [12] = assay: Test Example 3: soil treatment, effect on crop; c: corn
Procedure, shortened: as §2

Italian ryegrass [13] = assay: Test Example 4: weedkilling efficacy by foliar treatment; I: Italian ryegrass
Procedure, shortened: as §1

catchweed [14] = assay: Test Example 3: weedkilling efficacy through soil treatment; O: catchweed
Procedure, shortened: as §2

rapeseed [15] = assay: Test Example 3: soil treatment, effect on crop; g: rapeseed
Procedure, shortened: as §2

rapeseed [16] = assay: Test Example 4: foliar treatment, effect on crop; g: rapeseed
Procedure, shortened: as §1

transplanted rice = assay: Test Example 1: preemergent weed treatment in the submerged state, effect on crop; a: transplanted rice
Procedure, shortened: (§3)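 Submerged pre-emergence treatment, water-surface application of compound emulsion at g/ha dosages; 4 cm flooded alluvial soil, weeds sown and 2.5-leaf rice transplanted same day. Rated after 3 weeks, greenhouse.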

chickweed [17] = assay: Test Example 3: weedkilling efficacy through soil treatment; N: chickweed
Procedure, shortened: as §2

fig-leafed goosefoot [18] = assay: Test Example 3: weedkilling efficacy through soil treatment; M: fig-leafed goosefoot
Procedure, shortened: as §2

directly sown rice [19] = assay: Test Example 3: soil treatment, effect on crop; b: directly sown rice
Procedure, shortened: as §2

Italian ryegrass [20] = assay: Test Example 3: weedkilling efficacy through soil treatment; I: Italian ryegrass
Procedure, shortened: as §2

crabgrass [21] = assay: Test Example 3: weedkilling efficacy through soil treatment; D: crabgrass
Procedure, shortened: as §2

oval-leafed pondweed [22] = assay: Test Example 1: weedkilling efficacy, preemergent weed treatment in the submerged state; C: oval-leafed pondweed
Procedure, shortened: as §3

green foxtail [23] = assay: Test Example 4: weedkilling efficacy by foliar treatment; E: green foxtail
Procedure, shortened: as §1

barnyard grass [24] = assay: Test Example 4: weedkilling efficacy by foliar treatment; F: barnyard grass
Procedure, shortened: as §1

barnyard grass [25] = assay: Test Example 2: weedkilling efficacy, growth period weed treatment in the submerged state; A: barnyard grass
Procedure, shortened: (§4)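 Seedlings at 1-2 leaves in 4 cm-deep submerged alluvial soil received emulsion formulations on the water surface, dosed per hectare; effects were judged 3 weeks on.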

Indian mallow [26] = assay: Test Example 4: weedkilling efficacy by foliar treatment; K: Indian mallow
Procedure, shortened: as §1

crabgrass [27] = assay: Test Example 4: weedkilling efficacy by foliar treatment; D: crabgrass
Procedure, shortened: as §1

birds-eye speedwell [28] = assay: Test Example 3: weedkilling efficacy through soil treatment; p: birds-eye speedwell
Procedure, shortened: as §2

barnyard grass [29] = assay: Test Example 1: weedkilling efficacy, preemergent weed treatment in the submerged state; A: barnyard grass
Procedure, shortened: as §3

fig-leafed goosefoot [30] = assay: Test Example 4: weedkilling efficacy by foliar treatment; M: fig-leafed goosefoot
Procedure, shortened: as §1

catchweed [31] = assay: Test Example 4: weedkilling efficacy by foliar treatment; O: catchweed
Procedure, shortened: as §1

green foxtail [32] = assay: Test Example 3: weedkilling efficacy through soil treatment; E: green foxtail
Procedure, shortened: as §2

directly sown rice [33] = assay: Test Example 4: foliar treatment, effect on crop; b: directly sown rice
Procedure, shortened: as §1

corn [34] = assay: Test Example 4: foliar treatment, effect on crop; c: corn
Procedure, shortened: as §1

black-grass [35] = assay: Test Example 3: weedkilling efficacy through soil treatment; H: black-grass
Procedure, shortened: as §2

bulrush [36] = assay: Test Example 1: weedkilling efficacy, preemergent weed treatment in the submerged state; B: bulrush
Procedure, shortened: as §3

black-grass [37] = assay: Test Example 4: weedkilling efficacy by foliar treatment; H: black-grass
Procedure, shortened: as §1

beet [38] = assay: Test Example 3: soil treatment, effect on crop; f: beet
Procedure, shortened: as §2

barnyard grass [39] = assay: Test Example 3: weedkilling efficacy through soil treatment; F: barnyard grass
Procedure, shortened: as §2

soybean [40] = assay: Test Example 3: soil treatment, effect on crop; d: soybean
Procedure, shortened: as §2

oval-leafed pondweed [41] = assay: Test Example 2: weedkilling efficacy, growth period weed treatment in the submerged state; C: oval-leafed pondweed
Procedure, shortened: as §4

chickweed [42] = assay: Test Example 4: weedkilling efficacy by foliar treatment; N: chickweed
Procedure, shortened: as §1

bulrush [43] = assay: Test Example 2: weedkilling efficacy, growth period weed treatment in the submerged state; B: bulrush
Procedure, shortened: as §4

wheat [44] = assay: Test Example 3: soil treatment, effect on crop; e: wheat
Procedure, shortened: as §2

CC1=C(c2ccccc2)C(=O)N(C(C)(C)C(=O)Nc2cc(C(F)F)ccn2)CO1 [B-2-54]
e (wheat) effect on crop grade (wheat [1]): 0 (weed kill ratio 5% or less (practically no effect))
K (Indian mallow) weedkilling efficacy grade (Indian mallow [2]): 3 (weed kill ratio 40% or more, less than 70%)
L (redroot pigweed) weedkilling efficacy grade (redroot pigweed [3]): 4 (weed kill ratio 70% or more, less than 90%)
d (soybean) effect on crop grade (soybean [4]): 4 (weed kill ratio 70% or more, less than 90%)
G (wild oat) weedkilling efficacy grade (wild oat [5]): 5 (weed kill ratio 90% or more, (practically complete withering))
J (common wind-grass) weedkilling efficacy grade (common wind-grass [6]): 5 (weed kill ratio 90% or more, (practically complete withering))
J (common wind-grass) weedkilling efficacy grade (common wind-grass [7]): 5 (weed kill ratio 90% or more, (practically complete withering))
P (birds-eye speedwell) weedkilling efficacy grade (birds-eye speedwell [8]): 4 (weed kill ratio 70% or more, less than 90%)
L (redroot pigweed) weedkilling efficacy grade (redroot pigweed [9]): 4 (weed kill ratio 70% or more, less than 90%)
G (wild oat) weedkilling efficacy grade (wild oat [10]): 5 (weed kill ratio 90% or more, (practically complete withering))
f (beet) effect on crop grade (beet [11]): 4 (weed kill ratio 70% or more, less than 90%)
c (corn) effect on crop grade (corn [12]): 2 (weed kill ratio 20% or more, less than 40%)
I (Italian ryegrass) weedkilling efficacy grade (Italian ryegrass [13]): 5 (weed kill ratio 90% or more, (practically complete withering))
O (catchweed) weedkilling efficacy grade (catchweed [14]): 4 (weed kill ratio 70% or more, less than 90%)
g (rapeseed) effect on crop grade (rapeseed [15]): 4 (weed kill ratio 70% or more, less than 90%)
g (rapeseed) effect on crop grade (rapeseed [16]): 4 (weed kill ratio 70% or more, less than 90%)
a (transplanted rice) effect on crop grade (transplanted rice): 5 (weed kill ratio 90% or more, (practically complete withering))
N (chickweed) weedkilling efficacy grade (chickweed [17]): 4 (weed kill ratio 70% or more, less than 90%)
M (fig-leafed goosefoot) weedkilling efficacy grade (fig-leafed goosefoot [18]): 3 (weed kill ratio 40% or more, less than 70%)
b (directly sown rice) effect on crop grade (directly sown rice [19]): 5 (weed kill ratio 90% or more, (practically complete withering))
I (Italian ryegrass) weedkilling efficacy grade (Italian ryegrass [20]): 5 (weed kill ratio 90% or more, (practically complete withering))
D (crabgrass) weedkilling efficacy grade (crabgrass [21]): 5 (weed kill ratio 90% or more, (practically complete withering))
C (oval-leafed pondweed) weedkilling efficacy grade (oval-leafed pondweed [22]): 5 (weed kill ratio 90% or more, (practically complete withering))
E (green foxtail) weedkilling efficacy grade (green foxtail [23]): 5 (weed kill ratio 90% or more, (practically complete withering))
F (barnyard grass) weedkilling efficacy grade (barnyard grass [24]): 5 (weed kill ratio 90% or more, (practically complete withering))
A (barnyard grass) weedkilling efficacy grade (barnyard grass [25]): 5 (weed kill ratio 90% or more, (practically complete withering))
K (Indian mallow) weedkilling efficacy grade (Indian mallow [26]): 4 (weed kill ratio 70% or more, less than 90%)
D (crabgrass) weedkilling efficacy grade (crabgrass [27]): 5 (weed kill ratio 90% or more, (practically complete withering))
P (birds-eye speedwell) weedkilling efficacy grade (birds-eye speedwell [28]): 5 (weed kill ratio 90% or more, (practically complete withering))
A (barnyard grass) weedkilling efficacy grade (barnyard grass [29]): 5 (weed kill ratio 90% or more, (practically complete withering))
M (fig-leafed goosefoot) weedkilling efficacy grade (fig-leafed goosefoot [30]): 4 (weed kill ratio 70% or more, less than 90%)
O (catchweed) weedkilling efficacy grade (catchweed [31]): 4 (weed kill ratio 70% or more, less than 90%)
E (green foxtail) weedkilling efficacy grade (green foxtail [32]): 5 (weed kill ratio 90% or more, (practically complete withering))
b (directly sown rice) effect on crop grade (directly sown rice [33]): 5 (weed kill ratio 90% or more, (practically complete withering))
c (corn) effect on crop grade (corn [34]): 3 (weed kill ratio 40% or more, less than 70%)
H (black-grass) weedkilling efficacy grade (black-grass [35]): 5 (weed kill ratio 90% or more, (practically complete withering))
B (bulrush) weedkilling efficacy grade (bulrush [36]): 5 (weed kill ratio 90% or more, (practically complete withering))
H (black-grass) weedkilling efficacy grade (black-grass [37]): 5 (weed kill ratio 90% or more, (practically complete withering))
f (beet) effect on crop grade (beet [38]): 4 (weed kill ratio 70% or more, less than 90%)
F (barnyard grass) weedkilling efficacy grade (barnyard grass [39]): 5 (weed kill ratio 90% or more, (practically complete withering))
d (soybean) effect on crop grade (soybean [40]): 0 (weed kill ratio 5% or less (practically no effect))
C (oval-leafed pondweed) weedkilling efficacy grade (oval-leafed pondweed [41]): 5 (weed kill ratio 90% or more, (practically complete withering))
N (chickweed) weedkilling efficacy grade (chickweed [42]): 4 (weed kill ratio 70% or more, less than 90%)
B (bulrush) weedkilling efficacy grade (bulrush [43]): 5 (weed kill ratio 90% or more, (practically complete withering))
e (wheat) effect on crop grade (wheat [44]): 0 (weed kill ratio 5% or less (practically no effect))
